Laboratory results published in publication PMC9181915, “Synthesis and Anti-Neuroinflammatory Activity of 1,7-diphenyl-1,4-heptadien-3-ones in LPS-Stimulated BV2 Microglia Via Inhibiting NF-κB/MAPK Signaling Pathways” (Molecules, 2022).

Key:
[1] = MTT cell viability assay in BV2 microglia cells; type: cell-based; details: mouse, mean ± SD, n = 3
Method: (§1) The BV2 microglial cells were purchased from the China Center for Type Culture Collection, CCTCC (Wuhan, Hubei). BV2 microglia cells were incubated in DMEM media supplemented with 10% (v/v) FBS, 100 U/mL penicillin G and […] streptomycin at 37 °C with 5% CO2.
Cell viability assays were evaluated using a 3-(4,5-dimethylthiazol-2-yl)-2,5-diphenyltetrazolium bromide (MTT) assay. BV2 microglia cells were seeded in 96-well plates at a density of 1.6 × 10^5 cells/well in complete medium and incubated for 24 h. Then, the culture medium was sucked and discarded, and sterile PBS was added for washing, and then PBS was removed. Then the cells were treated with different concentrations of target compounds for 24 h. An amount equal to 100 μL of MTT was added to each well and the cells were further incubated for 2–4 h. An amount equal to 150 μL of DMSO was added into a 96-well plate and vibrated with micro-oscillator for 10 min. The optical density (A) was measured at […] on a microplate reader. The inhibitory rate of the various concentrations of agents in BV2 cells was calculated using the following formula:Cell viability (%) = [A492 (sample) − A492 (blank)]/[A492 (control) − A492 (blank)] × 100%

[2] = system: LPS-induced NO release in BV2 cells; experiment: Inhibition of LPS-induced NO release in BV2 cells; type: cell-based; details: Mus musculus, BV-2; for inhibition at 3 µM / inhibition at 1 µM: pretreated 1 h, then LPS 1 μg/mL for 24 h, BV2 cells; for IC50: BV2 cells, 0.3, 1.0, 3.0 μM, LPS 1 μg/mL 24 h, mean ± SD, n = 3, read-out: IC50 to inhibit LPS-induced NO release
Method: as §1
Nitrite, a stable product of nitric oxide, was used to assess NO production. To study the effects of the compounds on NO production, BV2 microglia cells in the logarithmic phase were plated at 1 × 10^5 cells/well in a 24-well microplate and incubated in DMEM medium (10% FBS) overnight. The cells were pretreated with various concentrations of the test compounds for 1 h and further co-cultured with 1 μg/mL LPS and 5% CO2 for 24 h in a 37 °C incubator; then, the supernatant was taken and stored at −20 °C for NO detection. The target compound and LPS were configured with DMEM medium (2% FBS). The determination of NO was carried out according to the instructions. Unpretreated and unstimulated BV2 microglia cells were conducted as the blank control group. The absorbance value was determined at 540 nm, and the corresponding NO content was calculated by using the standard curve. The NO inhibitory rate of the various concentrations of agents in BV2 cells was calculated as per the following formula:Inhibition rate (%) = (LPS(NO concentration) − sample(NO concentration))/(LPS(NO concentration) − negative control(NO concentration)) × 100%.

JNK = experiment: LPS-induced JNK phosphorylation in BV2 cells (Western blot); type: cell-based; details: 3 μM, 1 h pretreatment, LPS 1 μg/mL 24 h
Method: (§2) CU-19, CU-21 and LPS were configured with DMEM medium (2% FBS). The cells were collected and washed three times with ice-cold PBS. The lysate (containing 1% protease inhibitor and phosphatase inhibitor) was added to the collected cells for suspension, and the cells were lysed by ultrasonic crusher. Then the cell lysates were centrifuged (14,000 rpm, 10 min, 4 °C) […] and collect the supernatant. Aliquots of the lysates were separated on 10% sodium dodecyl sulphate (SDS)-polyacrylamide gel electrophoresis (PAGE) and then electro blotted onto a polyvinylidene difluoride (PVDF) membrane. The blots were blocked with 5% (w/v) nonfat dry milk for 2 h at room temperature, followed by incubation with specific primary antibodies at 4 °C overnight. Blots were washed with PBST and incubated with secondary antibody for 2 h, after which an ECL reagent was used for chemiluminescent detection.

ERK = experiment: LPS-induced ERK phosphorylation in BV2 cells (Western blot); type: cell-based; details: 3 μM, 1 h pretreatment, LPS 1 μg/mL 24 h
Method: as §2

p38 = experiment: LPS-induced p38 phosphorylation in BV2 cells (Western blot); type: cell-based; details: 3 μM, 1 h pretreatment, LPS 1 μg/mL 24 h
Method: as §2

[3] = In vivo pharmacokinetic study in rats; design: species or system Sprague–Dawley male rats; details: male, Sprague-Dawley, rat plasma, single intravenous dose 20 mg/kg, mean ± SD, n = 4
Method: After a single intravenous dose of 20 mg/kg, 0.5 mL of blood was obtained from the fossa orbitalis veniplex of rats at 5, 10, 20, 30, 45, 60, 120, 180 and 240 min. HPLC was used to determine the concentration of each compound in plasma and the DAS software was used for the noncompartmental pharmacokinetic analysis of the plasma concentration–time data.
Sprague–Dawley male rats, 200–240 g, were housed in cages in an airconditioned room with light dark cycle of 12 h before the experiment started. The animals were fasted for 12 h with water ad libitum. […] The administration volume was 6 mL per kg of body weight. The compounds were dissolved in PEG400 (10% of the administration volume) and water (90% of the administration volume) and sonicated for 30 min. After tail vein injection administration at a dose of 20 mg/kg, 0.5 mL blood was obtained from fossa orbitalis veniplex of rats at 5, 10, 20, 30, 45, 60, 120, 180 and 240 min. Whole blood samples were collected in heparinized tubes and the plasma was immediately centrifuged (10,000 rpm, 10 min, 4 °C) and then stored at −20 °C until analysis. The calibration standards and the plasma samples were extracted by protein precipitation using methanol.

Work on `COc1cc(/C=C/C(=O)CC(=O)/C=C/c2ccc(O)c(OC)c2)ccc1O` [CU, curcumin, reference compound] yielded a viability at 24 h, 1 µM [1] of 97.57 ± 0.05%, a viability at 24 h, 3 µM [1] of 95.26 ± 0.05% and a viability at 24 h, 10 µM [1] of 28.15 ± 0.19%. The inhibition at 3 µM [2] was 37.4%, the IC50 [2] was > 3000 nM and the “JNK phosphorylation compared to the LPS group” value (JNK) was “inhibited”. For the same compound, the “ERK phosphorylation compared to the LPS group” value (ERK) was “inhibited”, the “p38 phosphorylation compared to the LPS group” value (p38) was “inhibited” and the AUC(0-inf) [3] was 678 ng·h/mL. For the same compound, the AUC(0-t) [3] was 652 ng·h/mL, the Cmax [3] was 2450 ± 132 ng/mL and the half-life [3] was 24.7 ± 16.9 min. The MRT last ([3]; read-out: MRT (0-t) (converted)) was 14.1 min and the MRT inf ([3]; read-out: MRT (0-∞) (converted)) was 20.5 min.
Work on `O=C(/C=C/CCc1ccccc1)/C=C/c1ccc(Cl)cc1` [CU-10, (1E,4E)-1-(4-chlorophenyl)-7-phenyl-1,4-heptadien-3-one] yielded a viability at 24 h, 1 µM [1] of 95.54 ± 0.03%, a viability at 24 h, 3 µM [1] of 95.27 ± 0.16% and a viability at 24 h, 10 µM [1] of 48.7 ± 2.93%. It also gave an inhibition at 3 µM [2] of 0% and a melting point of 70 to 72 °C.
For `Cc1ccc(CC/C=C/C(=O)/C=C/c2ccc(O)cc2)cc1` [CU-11, (1E,4E)-1-(4-hydroxyphenyl)-7-(p-tolyl)-1,4-heptadien-3-one], the viability at 24 h, 1 µM [1] was 99.17 ± 0.01%, the viability at 24 h, 3 µM [1] was 91.61 ± 0.09% and the viability at 24 h, 10 µM [1] was 11.2 ± 0.56%. The inhibition at 3 µM [2] was 0% and the melting point was 132 to 134 °C.
`COc1ccc(CC/C=C/C(=O)/C=C/c2ccc(O)cc2)cc1` [CU-13, (1E,4E)-1-(4-hydroxyphenyl)-7-(4-methoxyphenyl)-1,4-heptadien-3-one] showed a viability at 24 h, 1 µM [1] of 109.5 ± 0.27%, a viability at 24 h, 3 µM [1] of 91.4 ± 0.32% and a viability at 24 h, 10 µM [1] of 28.5 ± 1.3%. The inhibition at 3 µM [2] was 0% and the melting point was 136 to 138 °C.
Work on `COc1ccc(/C=C/C(=O)/C=C/CCc2ccc(OC)cc2)cc1` [CU-14, (1E,4E)-1,7-bis(4-methoxyphenyl)-1,4-heptadien-3-one] yielded a viability at 24 h, 1 µM [1] of 97.96 ± 0.01%, a viability at 24 h, 3 µM [1] of 97.44 ± 0.03% and a viability at 24 h, 10 µM [1] of 18.06 ± 0.1%. It also gave an inhibition at 3 µM [2] of 49.7%, an IC50 [2] of 2430 ± 450 nM and a melting point of 65 to 67 °C.
Compound `Cc1ccc(/C=C/C(=O)/C=C/CCc2ccccc2)cc1` [CU-16, (1E,4E)-7-phenyl-1-(p-tolyl)-1,4-heptadien-3-one] has a viability at 24 h, 1 µM [1] of 95 ± 0.08%, a viability at 24 h, 3 µM [1] of 88.57 ± 0.28% and a viability at 24 h, 10 µM [1] of 33.3 ± 1.2%. For the same compound, the inhibition at 3 µM [2] was 15.4% and the melting point was 46 to 48 °C.
With `COc1cc(/C=C/C(=O)/C=C/CCc2ccc(O)cc2)ccc1O` [CU-17, (1E,4E)-1-(4-hydroxy-3-methoxyphenyl)-7-(4-hydroxyphenyl)-1,4-heptadien-3-one] the viability at 24 h, 1 µM [1] was 99.36 ± 0.01%, the viability at 24 h, 3 µM [1] was 80.72 ± 0.2% and the viability at 24 h, 10 µM [1] was 32.4 ± 0.67%. The inhibition at 1 µM [2] was 0% and the melting point was 141 to 143 °C.
`COc1ccc(/C=C/C(=O)/C=C/CCc2ccc(O)cc2)cc1O` [CU-18, (1E,4E)-1-(3-hydroxy-4-methoxyphenyl)-7-(4-hydroxyphenyl)-1,4-heptadien-3-one] gave a viability at 24 h, 1 µM [1] of 96.14 ± 0.03%, a viability at 24 h, 3 µM [1] of 46.6 ± 1.16% and a viability at 24 h, 10 µM [1] of 8.63 ± 0.373%. The inhibition at 1 µM [2] was 2.15% and the melting point was 152 to 154 °C.
Compound `COc1cc(/C=C/C(=O)/C=C/CCc2ccc(O)c(OC)c2)ccc1O` [CU-20, (1E,4E)-1,7-bis(4-hydroxy-3-methoxyphenyl)-1,4-heptadien-3-one] has a viability at 24 h, 1 µM [1] of 97.31 ± 0.03%, a viability at 24 h, 3 µM [1] of 51.8 ± 0.6% and a viability at 24 h, 10 µM [1] of 12.2 ± 0.21%. The inhibition at 1 µM [2] was 16.9% and the melting point was 103 to 105 °C.
Compound `Cc1ccc(CC/C=C/C(=O)/C=C/c2ccccc2)cc1` [CU-22, (1E,4E)-1-phenyl-7-(p-tolyl)-1,4-heptadien-3-one] has a viability at 24 h, 1 µM [1] of 95.14 ± 0.05%, a viability at 24 h, 3 µM [1] of 88.76 ± 0.06% and a viability at 24 h, 10 µM [1] of 46.6 ± 0.59%. The inhibition at 3 µM [2] was 48.2%, the IC50 [2] was > 3000 nM and the melting point was 62 to 64 °C.
For `O=C(/C=C/CCc1cccc(O)c1)/C=C/c1ccccc1` [CU-24, (1E,4E)-7-(3-hydroxyphenyl)-1-phenyl-1,4-heptadien-3-one], the viability at 24 h, 1 µM [1] was 103.49 ± 0.02%, the viability at 24 h, 3 µM [1] was 91.48 ± 0.07% and the viability at 24 h, 10 µM [1] was 23.17 ± 0.09%. For the same compound, the inhibition at 3 µM [2] was 0% and the melting point was 70 to 72 °C.
`O=C(/C=C/CCc1ccc(O)cc1)/C=C/c1ccccc1` [CU-25, (1E,4E)-7-(4-hydroxyphenyl)-1-phenyl-1,4-heptadien-3-one] showed a viability at 24 h, 1 µM [1] of 128.6 ± 0.14%, a viability at 24 h, 3 µM [1] of 96.93 ± 0.01% and a viability at 24 h, 10 µM [1] of 20.3 ± 0.59%. For the same compound, the inhibition at 3 µM [2] was 0% and the melting point was 75 to 77 °C.
Work on `COc1cc(CC/C=C/C(=O)/C=C/c2ccccc2)ccc1O` [CU-26, (1E,4E)-7-(4-hydroxy-3-methoxyphenyl)-1-phenyl-1,4-heptadien-3-one] yielded a viability at 24 h, 1 µM [1] of 107.17 ± 0.07%, a viability at 24 h, 3 µM [1] of 96.83 ± 0.02% and a viability at 24 h, 10 µM [1] of 12.8 ± 0.14%. The inhibition at 3 µM [2] was 37.6% and the melting point was 72 to 74 °C.
With `O=C(/C=C/CCc1ccc(Cl)cc1)/C=C/c1ccccc1` [CU-28, (1E,4E)-7-(4-chlorophenyl)-1-phenyl-1,4-heptadien-3-one] the viability at 24 h, 1 µM [1] was 95.71 ± 0.07%, the viability at 24 h, 3 µM [1] was 94.75 ± 0.05% and the viability at 24 h, 10 µM [1] was 81.65 ± 0.22%. The inhibition at 3 µM [2] was 33.6% and the melting point was 48 to 50 °C.
